Results taken from patent US7531502B2, “Diagnostic conjugate useful for intracellular imaging and for differentiating between tumor- and non-tumor cells” (Deutsches Krebsforschungszentrum Stiftung Des Offentlichen …, priority 2002, dated 2009).

Tested on: HeLa cervix carcinoma cells
Type: cell-based, human
Description: (a) Kinetic Studies: HeLa-cell-Uptake of the Gd-complex-transporter [without Address-sequence or with Either Antisense (ACGT)- or Random-sequence (RCGT)] Compared to Magnevist®. Living HeLa-cells were harvested and divided into tubes (Falcon) (Cell No.: 20×10^6 cells per tube). The Gd-complex-transporter without address-sequence and the Magnevist® were each dissolved in MEM culture medium in a concentration of 100 pM and were then incubated for 10, 20, 30 and 60 minutes. […] T1 and T2 relaxation-times within the pellets of both tubes were measured to evaluate the intracellular relaxivity of the respective contrast agents (R=1/T1). The T1-relaxation time was measured by means of an inversion-recovery-sequence (TR: 5000 ms/TE: 76 ms/TI: 25-4000 ms, 15 different TI-values, scan-time 15×25 sec, FOV: 160 mm×160 mm, Matrix: 132×256, slice thickness: 7 mm, pixel size: 1.21×0.63 mm). T2 relaxation-time was measured by a multi-echo-sequence (TR: 5000 ms/16 TE-values: 30 ms−245 ms, FOV: 250 mm×250 mm, Matrix: 256×256, slice thickness: 5 mm, pixel size: 0.98×0.98 mm, scan time: 21 min 21 sec). […] This procedure was repeated hourly until no signal increase compared to the control tube (HeLa cells or lymphocytes in MEM medium without contrast agent) could be detected in T1 weighted sequences.

For CNC[C@H](O)[C@@H](O)[C@H](O)[C@H](O)CO.CNC[C@H](O)[C@@H](O)[C@H](O)[C@H](O)CO.O=C([O-])CN(CCN(CC(=O)[O-])CC(=O)O)CCN(CC(=O)[O-])CC(=O)O.[Gd+3] [Magnevist®, reference compound], the “MR signal change compared with HeLa cells incubated solely in MEM” value (HeLa cells, 100 pM, 1 hour incubation) was “no signal change” and the “relaxivity R (R=1/T1) within the HeLa-cell pellets” value (HeLa-cell pellets after incubation, inversion-recovery T1 measurement) was 0.000995.
